From US20040014028A1, “Method for determination of protective epitopes for vaccination, diagnosis and vaccine quality control” (Wolf Biotech, priority 2002, published 2004)

Key:
swine anti-PRRSV NNS = test: Phage-ELISA with swine anti-PRRSV non-neutralizing serum; assay type: binding
Experimental: (§1) In FIG. 4 there is shown the reactivity of swine sera and monoclonal antibodies to selected cloned phages. Results are expressed as corrected OD405 (OD of selected phage-OD unselected phage library NS: serum from pig #6 with a neutralizing titer >64 and ELISA s/p ratio 1.053 NNS: serum from pig #5 with a neutralizing titer <4 and ELISA s/p ratio 0.652.
(§2) To detect peptides on the coat of phages, individual clones shown in FIG. 3 were propagated for 4.5 hours in E. coli ER2738 and then they were purified by two precipitations with PEG 8000. […] phages were added to each well of a Immulon 2HB (Dynex Technologies Inc, Chantilly, Va.) in sodium bicarbonate 0.1 M pH 8.6, and incubated for 16 hours at room temperature in a humidified chamber. Plates were blocked with PBS containing 10% milk for three hours at room temperature. Swine sera or Monoclonal antibody from the tissue culture supernatant were preadsorbed in PBS containing 10% non-fat milk added with 100 μg/ml of E. coli proteins. In addition, 10^10 pfu/ml of non-selected phages were added to the antibodies to reduce background caused by anti M-13 activity found in animal sera. The plates were washed six times with PBS 0.05% Tween-20 and the peroxidase-conjugated secondary antibody (1:500) was added for 30 minutes at 37 C. […] The results were read in a spectrophotometer at 405 nm.

[1] = test system: Monoclonal antibody ISU25-C1; test: Phage-ELISA with monoclonal antibody ISU25-C1; assay type: binding, mouse
Experimental: as §1, §2

swine anti-PRRSV NS = test: Phage-ELISA with swine anti-PRRSV neutralizing serum; assay type: binding
Experimental: as §1, §2

[2] = test system: sera from hyperimmunized pigs; test: Phage-ELISA with sequential sera from hyperimmunized pigs; assay type: binding, swine; conditions: early sera (20 days pi), ELISA positive, negative or low SN titer
Experimental: Epitopes A and B are represented by phage clones 01 and S2-4 (FIG. 1), respectively. ELISA s/p ratio was determined as the difference in the optical density (OD) of the test serum between viral and control antigens divided by the difference in the OD of the positive reference between viral and control antigens.
as §2, with “proteins.” for “proteins. In addition, 10^10 pfu/ml of non-selected phages were added to the antibodies to reduce background caused by anti M-13 activity found in animal sera. The plates were washed six times with PBS 0.05% Tween-20 and the peroxidase-conjugated secondary antibody (1:500) was added for 30 minutes at 37 C.”
Anti-PRRSV neutralizing antibodies appear late after infection and they are mainly directed against GP5. To determine a correlation between time post-infection and epitope recognition, we evaluated sera from several pigs at two different times of the hyperimmunization protocol as shown in FIG. 9.

swine neutralizing serum = test: Synthetic peptide ELISA with swine anti-PRRSV neutralizing serum; assay type: binding; conditions: NS from different immunized swine
Experimental: (§3) In FIG. 6 there is show the reactivity of Monoclonal antibody ISU25-C1 and swine anti-PRRSV hyperimmune sera to synthetic peptides bound to MBS coated ELISA plates. Results are expressed as corrected Optical density (OD) at 405 nm (OD405): (OD tested peptide-OD irrelevant peptide P7, Table 1). SN titer was determined against PRRSV Iowa strain. ELISA s/p ratio was determined as the difference in the optical density (OD) of the test serum between viral and control antigens divided by the difference in the OD of the positive reference between viral and control antigens. Serums 3, 5, 6 y 8 are from PRRSV-hyperimmunized pigs, serum 19 is a negative control, ISU 25-C1 and ISU 19A1 (Yang, L et al, Arch. Virol. 145:1599-1619, 2000) are anti-PRRSV neutralizing and non-neutralizing monoclonal antibodies respectively.
(§4) Several deduced peptides and variations of them were synthesized using solid phase technology and Fmoc standart chemistry. To perform ELISAs with these synthetic peptides, they were diluted in PBS pH 6.8 to a final concentration of 50 μg/ml, and then were used to coat Reacti-Bind Maleimide-Activated Plates (Pierce, Rockford, Ill.) for 5 hours at room temperature. Remaining maleimide groups were blocked by a 1-hour incubation with cysteine-HCl 10 μg/ml diluted in PBS pH 6.8. An extra blocking step was carried out by incubating the plate with PBS containing 10% milk. Sera or affinity-purified antibodies were added in different dilutions and incubated for 1 hour at room temperature.

[3] = test system: R4N/R1N-affinity purified antibodies; test: Synthetic peptide ELISA on maleimide-activated plates with R4N/R1N-affinity purified antibodies; assay type: binding, swine; conditions: synthetic peptides bound to MBS coated plates
Experimental: (§5) In FIG. 7, there is shown the reactivity of anti peptides-affinity purified antibodies to synthetic peptides bound to MBS coated ELISA plates. Results are expressed as corrected OD405 (OD tested peptide-OD irrelevant peptide P7, Table 1).
as §4
(§6) Based on the previous results, anti-epitope A and anti-epitope B antibodies were affinity purified from a pool of precipitated antibodies with a SN titer of 1:512 using Keyhole-limpet hemocianine (KLH)-conjugated peptides coupled to CNBr-activated Sepharose as ligand as it is known in the art. R4N/R1N-affinity purified antibodies recognized peptides R4N, peptide R1N and peptide S1. All these peptides contain an (A/V)LVN motif.

[4] = test system: anti-peptide S2-affinity purified antibodies; test: Synthetic peptide ELISA on maleimide-activated plates with anti-peptide S2-affinity purified antibodies; assay type: binding, swine; conditions: for recognition by S2 affinity purified antibodies in ELISA: synthetic peptides bound to MBS coated plates; for ELISA signal (OD) with anti-peptide S2 affinity-purified antibodies: synthetic peptide bound to ELISA plate
Experimental: as §5, §4, §6

[5] = test system: anti-peptide S2-affinity purified antibodies; test: Inhibition by synthetic peptides of binding of anti-peptide S2-affinity purified antibodies to phage clone S2-4; set-up: species or system swine; conditions: serial five-fold dilutions of peptide
Experimental: In FIG. 8, there is shown the inhibition by synthetic peptides of the binding of anti-peptide S2-affinity purified antibodies to phage clone S2-4. Serial five-fold dilutions of synthetic peptides S2 (filled squares), S3 (X) or irrelevant peptide P7(filled circle) were used. Results are expressed as the percentage of the signal obtained with anti-peptide S2 affinity purified antibodies in wells to which no peptides were added. Values are the average of four readings.
This stresses the importance of motif SHF in the composition of epitope B. Anti-peptide S2 affinity-purified antibodies, recognized to a similar extent peptides S2 (OD: 0.336) and S6 (OD: 0.369), confirming that residues H^38, Q^40, I^42, Y^43 and N^44 constitute the core of epitope B.

[6] = test system: Monoclonal antibody ISU25-C1; test: Competition ELISA: inhibition by synthetic peptides of binding of monoclonal antibody ISU25-C1 to PRRSV-coated strips; set-up: species or system mouse; conditions: peptide concentration 333 μM
Source text: In FIG. 5 there is shown the inhibition by synthetic peptides of the binding of monoclonal antibody ISU25C1 (solid lines) or monoclonal antibody ISU19-A1 (dofted lines) to PRRSV in ELISA. Serial five-fold dilutions of synthetic peptide S4 were used (filled squares). Unrelated peptide P7 was used with monoclonal antibody ISU25C1 as a negative control (filled circles). Results are expressed as the percentage of the anti PRRSV-specific signal obtained with each monoclonal antibody in wells to which no peptides were added. Values are the average of four readings.
To perform competition assays, several dilutions of peptide S4 and irrelevant peptide […] (shown in Table 1) were incubated with Monoclonal antibody ISU25-C1 for 1.5 hours at room temperature. Then, the antibody-peptide mix was added to PRRSV-coated ELISA strips (IDDEX Lab., Inc; Westbrook, Me.) for 45 minutes.

[7] = test system: Monoclonal antibody ISU25-C1; test: Synthetic peptide ELISA with monoclonal antibody ISU25-C1; assay type: binding, mouse
Experimental: as §3
as §4, with “Sera or affinity-purified antibodies were added in different dilutions and incubated for 1 hour at room temperature.” left out

Row | Sequence | recognition by swine neutralizing serum in peptide ELISA (swine neutralizing serum) | recognition by R4N/R1N-affinity purified antibodies in ELISA [3] | recognition by S2 affinity purified antibodies in ELISA [4] | also measured
1 | YKNTHLDLIYNA [phage clone S2-4] |  |  |  | recognition of phage-displayed peptide by swine anti-PRRSV non-neutralizing serum (NNS) (swine anti-PRRSV NNS): not by swine non-neutralizing serum; recognition of phage-displayed peptide by Monoclonal antibody ISU25-C1 [1]: not by swine non-neutralizing serum or by monoclonal antibody ISU25-C1; recognition of phage-displayed peptide by swine anti-PRRSV neutralizing serum (NS) (swine anti-PRRSV NS): strongly recognized; reactivity of sera obtained shortly after the beginning of the immunization [2]: very weakly
2 | ALVNIPISNNLAC [peptide R4N] | recognized | recognized | did not recognize | 
3 | SGSGANNSSSSGSGSIYNC [peptide S3, peptide S2 with motif SHF replaced by GSG] | completely abrogated |  | did not recognize | inhibition of the binding of anti-peptide S2-affinity purified antibodies to clone S2-4 [5]: inhibited the binding
4 | SHITSYPAYFWC [peptide S4, mimotope for ISU25-C1] | do not recognize |  |  | inhibition of the binding of Monoclonal antibody ISU25-C1 to PRRSV [6]: 60%; recognition by Monoclonal antibody ISU25-C1 in peptide ELISA [7]: recognized
5 | SGSGANNSSSSHFQSIYNC [peptide S2, GP5 residues 27-44 with residues 27-30 changed to SGSG] | still recognized | did not recognize | recognized | recognition by Monoclonal antibody ISU25-C1 in peptide ELISA [7]: does not recognize; inhibition of the binding of anti-peptide S2-affinity purified antibodies to clone S2-4 [5]: inhibited to a greater extent than peptide S3; ELISA signal (OD) with anti-peptide S2 affinity-purified antibodies [4]: 0.336 OD
6 | SGSGSNNSSSSAC [peptide ΔR1N, R1N with residues 27-30 VLVN changed to irrelevant motif SGSG] | abrogated | did not recognize |  | 
7 | VLVNANNSSSSHFQSIYNC [peptide S1, residues 27 to 43 of GP5 of IA 97-7895, contains motifs VLVN and HXXXIYN] | strongly recognized | recognized | recognized | 
8 | VLVNSNNSSSSAC [peptide R1N, aminoacids 27-38 of the GP5 of PRRSV IA 97-7895 isolate] | recognized | recognized | did not recognize | 
9 | SGSGANSNSSSHLQLIYNLTLCELC [S6] |  |  |  | ELISA signal (OD) with anti-peptide S2 affinity-purified antibodies [4]: 0.369 OD
